Structures are written as SMILES. Like-named read-outs stand apart in the source and are kept apart here. Peptide text beside a SMILES is read from it. * marks the point of attachment. Succinimide(1-Et,3-yl) = CCN1C(=O)CC(*)C1=O; Bn = c1ccc(C*)cc1; X1 = Cc1ccc(*)cc1; Cam = NC(=O)C*

This series can be described thus: Stability evaluation of peptide P1 cysteine conjugates in the presence of base, acid or an external thiol nucleophile (LC-MS). It counts as physicochemical. Conditions: for stability toward bases (in words): basic conditions; for stability toward external thiol nucleophiles (in words): exogenous thiol; for stability toward acids (in words): acidic conditions. The protocol:
All reported yields were determined by integrating TIC spectra. First, the peak areas for all relevant peptide-containing species on the chromatogram were integrated using Agilent MassHunter software package. Since no peptide-based side products were generated in the experiments, the yields shown in Table 2 were determined as follows: % yield=Spr/Stotal where Spr is the peak area of the product and Stotal is the peak area of combined peptide-containing species (product and starting material). The yield of the stapled peptide (Example 19) was calculated as follows: % yield=k·Spr/Sst where Spr is the peak area of the reaction product, Sst is the peak area of a known amount of purified product, and k equals to the ratio of the known amount of standard divided by the initial amount of starting material. For peptide stability experiments the conversion was calculated as following: % remaining peptide=St/S0 where St is the peak area of the corresponding cysteine conjugate at time t, and S0 is the peak area of the cysteine conjugate at time 0.
Peptide P1 conjugates were pre-dissolved in water in plastic Eppendorfs to afford the 1.11 mM stock solutions used in the stability evaluation experiments. For each experiment, the corresponding cysteine conjugate (1.11 mM; 18 μL) and stability test reagent (2 μL, 50 mM in H2O or 50 mM in 1M Tris, pH 7.4) were combined in a plastic Eppendorf and left at rt for 2 days, followed by 4 days at 37° C. After this time, individual reactions were quenched with a solution of 50% A:50% B (v/v, 200 μL) and the resulting samples were analyzed by LC-MS.
Stability test reagent: K2CO3 (2 μL, 50 mM in H2O); Final conditions before quenching: 1 mM peptide, 5 mM K2CO3; 2 d at rt, then 4 d at 37° C.
Stability test reagent: HCl (2 μL, 1 M in H2O); Final conditions before quenching: 1 mM peptide, 0.1 M HCl; 2 d at rt, then 4 d at 37° C.
Stability test reagent: Glutathione (2 μL, 50 mM in 1 M Tris; pH 7.4); Final conditions before quenching: 1 mM peptide, 5 mM GSH, 0.1M Tris, pH 7.4; 2 d at rt, then 4 d at 37° C.

Where [1] appears, read: 5 mM aqueous K2CO3, 1 mM peptide, 5 mM K2CO3, 2 d at rt, then 4 d at 37° C., read-out: % remaining peptide, base.
[2] abbreviates: 0.1 M Tris buffer with 5 mM glutathione, 1 mM peptide, 5 mM GSH, 0.1M Tris, pH 7.4, 2 d at rt, then 4 d at 37° C., read-out: % remaining peptide, GSH.
[3] abbreviates: 0.1 M aqueous HCl, 1 mM peptide, 0.1 M HCl, 2 d at rt, then 4 d at 37° C., read-out: % remaining peptide, acid.

On to `CCN1C(=O)CC(SC[C@H](NC(=O)CNC(=O)[C@H](CC(C)C)NC(=O)[C@H](Cc2ccc(O)cc2)NC(=O)[C@H](Cc2ccccc2)NC(=O)[C@H](CC(N)=O)NC(=O)[C@H](CO)NC(=O)[C@@H](N)CCCNC(=N)N)C(=O)N[C@@H](C)C(=O)NCC(=O)N[C@@H](CC(C)C)C(=O)N[C@@H](C)C(=O)N[C@@H](Cc2c[nH]cn2)C(=O)N[C@@H](CC(=O)O)C(=O)N[C@@H](CCCCN)C(=O)N[C@@H](C)C(=O)N[C@H](C(N)=O)[C@@H](C)O)C1=O` (stereo partly shown) (H-RSNFYLGC(Succinimide(1-Et,3-yl))AGLAHDKAT-NH2), for which the “stability toward bases (in words)” value is on record as “decomposed” and the “stability toward external thiol nucleophiles (in words)” value is given as “decomposed”. The amount remaining (as a rule, what is left of the initial amount, in per cent) at 144 h, 1 mM under setting [1] came to 0%. Under setting [2], the fraction remaining at 144 h, 1 mM is 37%. The amount remaining at 144 h, 1 mM under setting [3] was 84%.
Turning to `CC(C)C[C@H](NC(=O)CNC(=O)[C@H](C)NC(=O)[C@H](CSCC(N)=O)NC(=O)CNC(=O)[C@H](CC(C)C)NC(=O)[C@H](Cc1ccc(O)cc1)NC(=O)[C@H](Cc1ccccc1)NC(=O)[C@H](CC(N)=O)NC(=O)[C@H](CO)NC(=O)[C@@H](N)CCCNC(=N)N)C(=O)N[C@@H](C)C(=O)N[C@@H](Cc1c[nH]cn1)C(=O)N[C@@H](CC(=O)O)C(=O)N[C@@H](CCCCN)C(=O)N[C@@H](C)C(=O)N[C@H](C(N)=O)[C@@H](C)O` (H-RSNFYLGC(Cam)AGLAHDKAT-NH2), the “stability toward acids (in words)” value was “unstable” and the “stability toward bases (in words)” value was “unstable”. Further, the fraction remaining at 144 h, 1 mM under setting [1] came out at 66%. In addition, the share remaining at 144 h, 1 mM under setting [2] worked out at 85%. Further, the share remaining at 144 h, 1 mM under setting [3] was found to be 63%.
In the case of `Cc1ccc(SC[C@H](NC(=O)CNC(=O)[C@H](CC(C)C)NC(=O)[C@H](Cc2ccc(O)cc2)NC(=O)[C@H](Cc2ccccc2)NC(=O)[C@H](CC(N)=O)NC(=O)[C@H](CO)NC(=O)[C@@H](N)CCCNC(=N)N)C(=O)N[C@@H](C)C(=O)NCC(=O)N[C@@H](CC(C)C)C(=O)N[C@@H](C)C(=O)N[C@@H](Cc2c[nH]cn2)C(=O)N[C@@H](CC(=O)O)C(=O)N[C@@H](CCCCN)C(=O)N[C@@H](C)C(=O)N[C@H](C(N)=O)[C@@H](C)O)cc1` (H-RSNFYLGC(X1)AGLAHDKAT-NH2), the “stability toward acids (in words)” value is “stable”, the “stability toward bases (in words)” value is “stable” and the “stability toward external thiol nucleophiles (in words)” value is “stable”. Moreover, the “% remaining peptide, base” value (1 mM peptide, 5 mM K2CO3, 2 d at rt, then 4 d at 37° C.) is recorded as 83%. Further, under setting [2], the amount remaining at 144 h, 1 mM worked out at 90%. Also, under setting [3], the fraction remaining at 144 h, 1 mM came to 83%.
As to `CC(C)C[C@H](NC(=O)CNC(=O)[C@H](C)NC(=O)[C@H](CSCc1ccccc1)NC(=O)CNC(=O)[C@H](CC(C)C)NC(=O)[C@H](Cc1ccc(O)cc1)NC(=O)[C@H](Cc1ccccc1)NC(=O)[C@H](CC(N)=O)NC(=O)[C@H](CO)NC(=O)[C@@H](N)CCCNC(=N)N)C(=O)N[C@@H](C)C(=O)N[C@@H](Cc1c[nH]cn1)C(=O)N[C@@H](CC(=O)O)C(=O)N[C@@H](CCCCN)C(=O)N[C@@H](C)C(=O)N[C@H](C(N)=O)[C@@H](C)O` (H-RSNFYLGC(Bn)AGLAHDKAT-NH2), the share remaining at 144 h, 1 mM is, setting by setting: under setting [1], 84%; under setting [2], 88%; under setting [3], 85%.

These data come from patent US20190055280A1, “TRANSITION METAL-BASED SELECTIVE FUNCTIONALIZATION OF CHALCOGENS IN BIOMOLECULES” (Massachusetts Institute of Technoloy, priority 2014, published 2019).
